Experimental data: patent US20080103193A1, “Methods for making compositions and compositions for treating pain and cachexia” (priority 2006, published 2008)
“Also recorded” adds a separate entry of the source.

How the values were obtained:
[1] = cited from earlier work; for psychoactivity relative to THC: compared with Δ9-THC
[2] = cited from earlier work
[3] = Room temperature storage of marijuana biomass, Δ9-THC content; assay type: physicochemical; details: 8-month period, room temperature storage at RTI
Experimental: Under DEA Schedule I license (No. RC0288058), two 250-gram shipments of high potency, bulk marijuana biomass were requested from the National Institute of Drug Abuse (NIDA). Both shipments were provided by the Research Triangle Institute (RTI) International, Research Triangle Park, N.C. under contract with NIDA. The first batch (RTI Batch No. 8976-1001-26/University of Mississippi Batch No. 1182/1186) was received and logged in at Aphios on Dec. 17, 2002. This batch was measured by the University of Mississippi's Thad Cochran National Center for the Natural Products Research to have a Δ9-THC content of 8.98%. Table 1 lists the concentration of other cannabinoids per the provided Certificate of Analysis (Dec. 2, 2002). Table 1 also lists HPLC measurements of heat-treated biomass made by Aphios' chemists; the methods and data are detailed below. The biomass was stored in a locked safe at room temperature when not in use. All usage was recorded on a log sheet that was also stored in the same safe.
The second shipment, also from the same batch of high potency marijuana from the U. of Mississippi, was received and logged in at Aphios on Aug. 14, 2003. The second shipment was measured by RTI on Jul. 29, 2003 to have a Δ9-THC content of 6.12% by GLC analysis. […]

CCCCCc1cc(O)c2c(c1)OC(C)(C)[C@@H]1CCC(CO)=C[C@@H]21 [11-OH-A-9-THC]
psychoactivity relative to THC [1]: three times more psychoactive

C=C(C)[C@@H]1CCC(C)=C[C@H]1c1c(O)cc(CCCCC)cc1O [CBD, cannabidiol]
psychoactivity ([1]; in vivo): not psychoactive; also recorded: not psychotomimetic in pure form

CCCCCc1cc(O)c2c(c1)OC(C)(C)[C@@H]1CCC(C)=C[C@@H]21 [Dronabinol]
bioavailability (reaches systemic circulation) ([2]; oral Dronabinol): 6-20% | time to peak plasma concentrations after dosing ([2]; oral Dronabinol): 2 to 4 h | bioavailability ([2]; oral intake of synthetic Δ9-THC capsules): 6-20%

CCCCCc1cc(O)c2c(c1)OC(C)(C)[C@@H]1CCC(C)=C[C@@H]21 [Δ9-THC, Δ9-tetrahydrocannabinol]
decrease of Δ9-THC content of the marijuana biomass [3]: about 32%

CCCCCc1cc(O)c2c(c1)OC(C)(C)[C@@H]1CC=C(C)C[C@@H]21 [Δ-8-THC, Δ8-tetrahydrocannabinol]
psychoactivity relative to THC [1]: slightly less active
